In article PMC10873635 (Proceedings of the National Academy of Sciences of the …, 2024):

Key:
[1] = biological target: His6-ALO (Anthrolysin O) (Bacillus anthracis, UniProt A0A6L7HHW7); assay type: biochemical
[2] = biological target: T1, His6-Scap(L1)-FLAG (Cricetulus griseus, UniProt P97260); assay: competition with [3H]cholesterol; assay type: binding; details: 150 nM [3H]cholesterol, 0.004% NP-40, 0.002% FC-13, 4 °C, 4 h
T1 sequence (P97260 46-269): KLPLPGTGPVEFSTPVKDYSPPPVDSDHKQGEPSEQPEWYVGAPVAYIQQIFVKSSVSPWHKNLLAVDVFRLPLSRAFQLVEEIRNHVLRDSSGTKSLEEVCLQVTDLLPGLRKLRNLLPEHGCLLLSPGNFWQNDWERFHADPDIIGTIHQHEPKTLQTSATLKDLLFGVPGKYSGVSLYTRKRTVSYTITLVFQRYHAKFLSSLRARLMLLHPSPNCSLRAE

Chain of His6-ALO (Anthrolysin O) (A0A6L7HHW7 35-512 limits assumed): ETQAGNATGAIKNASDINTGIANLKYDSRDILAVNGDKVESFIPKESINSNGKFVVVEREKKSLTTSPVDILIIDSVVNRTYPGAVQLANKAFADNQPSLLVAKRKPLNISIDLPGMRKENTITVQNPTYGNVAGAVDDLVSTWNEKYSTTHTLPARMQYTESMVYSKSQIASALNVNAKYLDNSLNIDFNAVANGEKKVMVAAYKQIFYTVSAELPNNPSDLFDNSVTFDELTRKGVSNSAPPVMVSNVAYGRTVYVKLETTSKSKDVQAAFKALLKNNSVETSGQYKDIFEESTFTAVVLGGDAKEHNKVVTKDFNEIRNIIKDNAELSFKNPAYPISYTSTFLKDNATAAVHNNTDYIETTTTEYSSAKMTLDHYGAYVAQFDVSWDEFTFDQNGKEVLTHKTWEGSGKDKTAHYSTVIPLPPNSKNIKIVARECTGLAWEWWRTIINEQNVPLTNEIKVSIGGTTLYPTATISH

SMILES | inhibition of hemolysis of rabbit erythrocytes [1] | competition with [3H]cholesterol ([2]; competitive) | competition with [3H]cholesterol ([2]; competitive, cholesterol site) | competition with [3H]cholesterol ([2]; also labelled compound)
C[C@H](CCCC(C)(C)F)[C@H]1CC[C@H]2[C@@H]3CC=C4C[C@@H](O)CC[C@]4(C)[C@H]3CC[C@]12C [25-fluorocholesterol] | both Scap and ALO bind desmosterol, 25-fluorocholesterol, and β-sitosterol | both Scap and ALO bind desmosterol, 25-fluorocholesterol, and β-sitosterol | – | –
CCOC(=O)c1ccc(NC(=O)Nc2ccc(-c3noc(C4CCC4)n3)cc2)cc1 [UT-59, ethyl 4-({[4-(5-cyclobutyl-1,2,4-oxadiazol-3-yl)anilino]carbonyl}amino) benzoate] | – | – | UT-59 competed with [^3H]cholesterol for binding to His6-Scap(L1)-FLAG to a similar degree as unlabeled cholesterol | –
CC(C)CCC[C@@H](C)[C@H]1CC[C@H]2[C@@H]3CC=C4C[C@@H](O)CC[C@]4(C)[C@H]3CC[C@]12C [cholesterol] | the sterol occupied the binding pocket, preventing ALO from binding to the membrane and inhibiting hemolysis | – | – | As expected, both Scap and ALO bind cholesterol.
CC(C)=CCC[C@@H](C)[C@H]1CC[C@H]2[C@@H]3CC=C4C[C@@H](O)CC[C@]4(C)[C@H]3CC[C@]12C [desmosterol] | both Scap and ALO bind desmosterol, 25-fluorocholesterol, and β-sitosterol | both Scap and ALO bind desmosterol, 25-fluorocholesterol, and β-sitosterol | – | –
CC(C)CCC[C@@H](C)[C@H]1CC[C@H]2[C@@H]3CC[C@H]4C[C@@H](O)CC[C@]4(C)[C@H]3CC[C@]12C [dihydrocholesterol] | – | as well as dihydrocholesterol, where the double bond in the steroid nucleus is reduced | – | –
CC[C@H](CC[C@@H](C)[C@H]1CC[C@H]2[C@@H]3CC=C4C[C@@H](O)CC[C@]4(C)[C@H]3CC[C@]12C)C(C)C [β-sitosterol] | both Scap and ALO bind desmosterol, 25-fluorocholesterol, and β-sitosterol | both Scap and ALO bind desmosterol, 25-fluorocholesterol, and β-sitosterol | – | –
